In US20170209499A1, “Propolis and Extracts Thereof for the Treatment of Skin Cancers and Improvement of Skin Health” (Manuka Health New Zealand Limited, priority 2014, published 2017):

System: human basal carcinoma cell line TE 354.T
Assay: MTT cell proliferation assay, human basal cell carcinoma cell line TE 354.T
Format: cell-based
Details: for Mean OD: MTT Optical Density at 570 nm
Method: The three human skin cancer cell lines were: • 1) Human Melanoma cell line (A-2058). • 2) Human Epidermoid (Squamous) Carcinoma cell line (A-431). • 3) Human Basal Cell Carcinoma cell line (TE 354.T).
The cell lines were revived from cryostorage and cultured in the presence of the test and reference samples. An MIT assay was then performed on the cultures to determine the effect of the samples on the cell viability and proliferation. The percentage standard error of the mean was assessed and extreme outliers were removed if the SEM%>15. Preliminary statistical significance was assessed with an independent Student t-test at α<0.05 (with and without outliers). The methodology was based on the procedures reported by: • Ahn, N G, Campbell J S (1993). […] Proc Natl Acad Sci. 90: 5143-5147. • Galan-Cobo, A et al (2014). Functional inhibition of aquaporin-3 with a gold-based compound induces blockage of cell proliferation. J Cellul. Physiol. 229: 1787-1801. • Roomi, M W, Kalinovsky, J et al (2013) Effect of a nutrient mixture on matrix metalloproteinase-9 dimers in various human cancer cell lines. Inter 3 Oncol. 44: 936-942. • Huang, H C, Lin, M K et al (2013). Cardenolides and bufadienolide glycosides from Kalanchoe tubiflora and evaluation of cytotoxicity. Planta Medica. 79: 1362-1369. • Tilli, C M L J, Stavast-Kooy, A J W et al (2003). The garlic-derived organosulfur component ajoene decreases basal cell carcinoma tumor size by inducing apoptosis. Arch Dermatol Res. 295: 117-123.
• 1. Human melanoma cell line (A-2058, ATCC CRL11147) was obtained from ATCC, Bethesda, Md., USA. • 2. Human squamous (epidermoid) carcinoma cell line (A-431, ATCC CRL1555) was obtained from ATCC, Bethesda, Md. USA. • 3. Human basal cell carcinoma cell line (TE 354.T, ATCC CRL7762) was obtained from ATCC, Bethesda, Md., USA. • 4. Dulbecco's Modified Eagle's Medium (DMEM) was obtained from GIBCO (12100-038). 10% Foetal Bovine Serum (FBS), 100 U/ml Penicillin and […] Streptomycin were added before use. • 5. Penicillin-streptomycin solution, stored at −20° C. consisting of 10000 units/ml penicillin and 10 mg/ml streptomycin in 0.9% NaCl was obtained from Sigma (#P-0781). • 6. Trypsin-EDTA solution consisting of 0.25% Trypsin/EDTA was obtained from Invitrogen (#15400054). • 7. Phosphate buffered saline (PBS) was prepared in-house. • 8. Hanks Balanced Salt Solution (HBSS), stored at 4° C. was obtained from GIBCO (#14185-052). • 9. Foetal Bovine Serum (FBS) stored at −20° C. was obtained from GIBCO (#10091-148). • 10. MTT Reagent, 100 mg/vial, was obtained from Sigma (M-2128) and then dissolved in PBS at 10 mg/ml and stored at −20° C. A 5 mg/ml MTT solution was prepared in PBS and stored at 4° C. as the working solution. • 11. MU lysis buffer: 10% sodium dodecyl sulphate (SDS)/45% Dimethyl Formamide was prepared by dissolving 20 g SDS in 100 ml of double-distilled water (DDW), and then adding 90 ml of Dimethyl Formamide to the solution. The pH was adjusted to 4.7 by glacial acetic acid, and DDW added up to a final volume of 200 ml. • 12. 5-Fluorouracil (5-FU) was supplied by Sigma (F-6627). Three working solutions were prepared at 19.5 μg/ml. 6.5 μg/ml and 1.95 μg/ml dissolved in 15% Ethanol/HBSS. Final concentrations were 1.95 μg/ml (15 μM), 0.65 μg/ml (5 μM) and 0.195 μg/ml (1.5 μM).
• 1. Each of the cell lines was revived from cryostorage. • 2. Following initial propagation using the media described above (Characterisation of Test System, and Medium Preparation), the cell culture was subcultured using trypsin-EDTA. The media was removed and 5ml of the trypsin-EDTA solution added and incubated at 37° C. for 5 min or until all the cells had detached. The trypsin was neutralised by the addition of an equal volume of the relevant medium and centrifugation of the suspension at 300 g (1200 rpm) for 5 min at 4° C. • 3. […]

**Q.** Which results are given for `O=c1[nH]cc(F)c(=O)[nH]1` [5-fluorouracil, reference compound]?
**A.** Mean OD (0.195 μg/ml): 0.2548; Mean OD (0.65 μg/ml): 0.2656; Mean OD (1.95 μg/ml): 0.2553; inhibition at 0.195 µg/mL (Homo sapiens, 0.195 μg/ml, 24 hr incubation, vs cells only): 5.49%; inhibition at 0.65 µg/mL (Homo sapiens, 0.65 μg/ml, 24 hr incubation, vs cells only): 1.49%; inhibition at 1.95 µg/mL (Homo sapiens, 1.95 μg/ml, 24 hr incubation, vs cells only): 5.31%
